Data on four molecules can be found in patent US12144820B2, “Dry powder formulations for inhalation” (VECTURA INC., priority 2016, dated 2024).

As usually defined, the solubility is the dissolved amount per volume that the medium holds.

Common to all, as to format: physicochemical
Data set [1] can be described thus: Chemical stability of aspirin in ASA/Leucine formulations by RP-HPLC after storage. The conditions noted are these: reference standard, no storage condition. As to the method:
Chemical stability of aspirin in the formulations were tested by RP-HPLC before and after the formulations were exposed to various storage conditions.

The nature of data set [2]: Potency and purity by RP-HPLC of aspirin/leucine formulations. The conditions noted are these: before storage. As to the method:
The properties of the ASA formulation were evaluated, including geometric particle size distribution (e.g., using laser diffraction such as the Malvern Dry Method); particle morphology (e.g., using scanning electron microscopy (SEM)); ID/Assay and purity (e.g., by HPLC); X-ray powder diffraction (XRPD); and aerosol properties by NGI.

Data set [3] can be described thus: ASA and L-leucine absolute solubility in EtOH/water blends. As to the method:
To define the absolute solubility of ASA and L-leucine in a variety of solvent blends, solvent blends were evaluated for solubility of ASA and L-leucine by visual confirmation. As used in this example, unless specified otherwise, leucine is L-leucine.

Data set [4] in a line: ASA and L-leucine mixing solubility. As to conditions: for precipitation after mixing: 5 wt. % total solids, on the order of minutes. As to the method: The objective is to apply absolute solubility of ASA and L-Leu to a mixing study to determine if a spray drying approach is feasible. ASA and L-leucine was independently dissolved in preferred solvent: ASA in EtOH, and L-leucine in a sulfuric acid solution (pH 4.0) (which may increase L-leucine solubility in water). Proposed formulations were evaluated at a final total solids of 7 wt. % and 5 wt. %. In one embodiment, solvent ratio was 25/75 EtOH/Water. Precipitation of components was analyzed visually.

Data set [5] is described as follows: Anti-solvent evaluation of 5% w/w acetylsalicylic acid suspensions. As to conditions: 5% w/w suspension, room temperature. How it is done: After considering a number of factors in the end it was determined that only n-heptane and toluene fulfilled all the requirements, and therefore these were selected for further evaluation. Suspensions of acetylsalicylic acid at 5% w/w were prepared with the various anti-solvents, by charging the required amount of anti-solvent, charging the required amount of acetylsalicylic acid, and then stirring until a homogeneous suspension was obtained. The suspensions were qualitatively evaluated at room temperature and then filtered using a 0.45 μm membrane, which was then placed in an oven and dried at 60° C. until the solvent had completely evaporated. A quantitative analysis was performed on the residue that remained in the membrane by weighing the membrane before and after the test.

Data set [6] in a line: ASA in ethanol spray solution stability evaluation. As to conditions: for % ASA Purity / % SA: 9 wt % ASA in ethanol. As to the method:
ASA degrades to salicylic acid (SA) as a function of time and temperature due to dissolution. Initial and cold 1 day solutions contained less than 0.5% SA.
9 wt % ASA was added to ethanol with constant stirring to stainless steel vessels. Samples were either stirred at ambient room temperature (approx. 22° C.) or 4° C. and sampled at 1, 3 and 6 days (Table 34).

Converted amounts (≈) assume the structure as drawn. Read-outs that look alike come from different tables or passages of the source.

As to `CC(=O)Oc1ccccc1C(=O)O` [ASA Reference Standard], in data set [1], the “ASA Purity (%)” value came out at 99.76% and the “SA Impurity (%)” value is listed as 0.24%.
In the case of `CC(=O)Oc1ccccc1C(=O)O` [ASA Standard], in data set [2], the “ASA Purity” value is listed as 99.76 ± 0.11% and the “SA Purity” value came to 0.24 ± 0.11%.
With `CC(C)C[C@H](N)C(=O)O` [L-Leucine, L-leucine], the solubility was determined as 10 mg/mL (≈ 76.2 mM) in data set [3] (Neutral, EtOH/Water 0/100 (v/v), read-out: L-Leucine solubility); 17 mg/mL (≈ 130 mM) in data set [3] (aqueous buffer, pH 3, EtOH/Water 0/100 (v/v), read-out: L-Leucine solubility); 9 mg/mL (≈ 68.6 mM) in data set [3] (aqueous with cosolvent or surfactant or cyclodextrin, Neutral, EtOH/Water 10/90 (v/v), read-out: L-Leucine solubility); 0.4 mg/mL (≈ 3.05 mM) in data set [3] (aqueous with cosolvent or surfactant or cyclodextrin, Neutral, EtOH/Water 25/75 (v/v), read-out: L-Leucine solubility); 0.3 mg/mL (≈ 2.29 mM) in data set [3] (aqueous with cosolvent or surfactant or cyclodextrin, Neutral, EtOH/Water 50/50 (v/v), read-out: L-Leucine solubility); 11 mg/mL (≈ 83.9 mM) in data set [3] (aqueous with cosolvent or surfactant or cyclodextrin, pH 3, EtOH/Water 10/90 (v/v), read-out: L-Leucine solubility). Moreover, the solubility was 1 mg/mL (≈ 7.62 mM) in data set [3] (aqueous with cosolvent or surfactant or cyclodextrin, pH 3, EtOH/Water 50/50 (v/v), read-out: L-Leucine solubility) and 0.2 mg/mL (≈ 1.52 mM) in data set [3] (organic solvent or mixture, Neutral, EtOH/Water 75/25 (v/v), read-out: L-Leucine solubility). Besides, the L-Leucine solubility is recorded as 0.04 wt. % in data set [3] (Neutral, EtOH/Water 25/75 (v/v)); 0.03 wt. % in data set [3] (Neutral, EtOH/Water 50/50 (v/v)); 0.02 wt. % in data set [3] (Neutral, EtOH/Water 75/25 (v/v)); “Insouble” in data set [3] (Neutral, EtOH/Water 90/10 (v/v)); 1.7 wt. % in data set [3] (pH 3, EtOH/Water 0/100 (v/v)); 1.0 wt. % in data set [3] (pH 3, EtOH/Water 10/90 (v/v)). The L-Leucine solubility in data set [3] (pH 3, EtOH/Water 50/50 (v/v)) was 0.1 wt. %. Also, the precipitation after mixing result in data set [4] was “no evidence of precipitation”. Moreover, the “time to precipitation out of solution” value in data set [4] (7 wt. % solids, 85/15 ASA/L-leucine formulation, after mixing) is reported as “approximately 60 seconds”.
Take `CC(=O)Oc1ccccc1C(=O)O` [acetylsalicylic acid]: the “solubility behaviour in anti-solvent” value in data set [5] (n-heptane) was “phobic behavior”; in data set [5] (toluene), “partially soluble”. For the same molecule, the “% ASA Purity” value is 98.0% in data set [6] (Ambient Conditions, 1 Day); 90.5% in data set [6] (Ambient Conditions, 3 Day); 90.5% in data set [6] (Ambient Conditions, 6 Day); 99.9% in data set [6] (Ambient Conditions, Initial); 99.1% in data set [6] (Controlled 4° C., 1 Day); 97.5% in data set [6] (Controlled 4° C., 3 Day). Further, the “% ASA Purity” value is 96.7% in data set [6] (Controlled 4° C., 6 Day) and 99.9% in data set [6] (Controlled 4° C., Initial). In addition, the “% SA” value stood at 1.7% in data set [6] (Ambient Conditions, 1 Day); 7.5% in data set [6] (Ambient Conditions, 3 Day); 7.2% in data set [6] (Ambient Conditions, 6 Day); 0.1% in data set [6] (Ambient Conditions, Initial); 0.4% in data set [6] (Controlled 4° C., 1 Day); 2.0% in data set [6] (Controlled 4° C., 3 Day). In addition, the “% SA” value in data set [6] (Controlled 4° C., 6 Day) is recorded as 2.3%; in data set [6] (Controlled 4° C., Initial), 0%. For the same molecule, the “SA content of spray solution” value in data set [6] (Initial and cold 1 day solutions) was “less than 0.5%”. The ASA solubility is 7.5 wt. % in data set [3] (EtOH/Water 50/50 (v/v)), 17.4 wt. % in data set [3] (EtOH/Water 75/25 (v/v)), 21.4 wt. % in data set [3] (EtOH/Water 90/10 (v/v)) and “up to 5 wt. % total solids” in data set [3] (all solvent blends except 25/75 EtOH/water). The solubility in data set [3] (EtOH/Water 50/50 (v/v), aqueous with cosolvent or surfactant or cyclodextrin, read-out: ASA solubility) turned out to be 72.5 mg/mL (≈ 402 mM); in data set [3] (EtOH/Water 75/25 (v/v), organic solvent or mixture, read-out: ASA solubility), 118 mg/mL (≈ 653 mM); in data set [3] (EtOH/Water 90/10 (v/v), organic solvent or mixture, read-out: ASA solubility) it was 220 mg/mL (≈ 1220 mM). In addition, in data set [4], the precipitation after mixing entry is “no evidence of precipitation”.
